From the CheMixHub viscosity set
“And” between values parts separate entries of the source, which are not always exact repeats. Equal values may be shown once.

Assay: xn = mol fraction of the nth substance listed

C[N+]1(CC2CO2)CCCC1=O.[Cl-] (configuration not stated) + CCC(=O)O
viscosity [mPa·s], 101 kPa
Details | 293.15 K | 298.15 K | 303.15 K | 308.15 K | 313.15 K
x1 = 0.0325 | 1.305 | 1.209 | 1.12 | 1.041 | 0.971
x1 = 0.0638 | 1.577 | 1.45 | 1.335 | 1.233 | 1.144
x1 = 0.1089 | 1.836 | 1.673 | 1.533 | 1.41 | 1.301
x1 = 0.205 | 2.333 | 2.104 | 1.909 | 1.738 | 1.592
x1 = 0.3036 | 2.544 | 2.285 | 2.064 | 1.876 | 1.712
x1 = 0.4076 | 2.537 | 2.278 | 2.059 | 1.87 | 1.707
x1 = 0.5049 | 2.288 | 2.069 | 1.882 | 1.718 | 1.578
x1 = 0.6079 | 2.088 | 1.895 | 1.729 | 1.586 | 1.462
x1 = 0.7037 | 1.935 | 1.763 | 1.613 | 1.485 | 1.372
x1 = 0.8065 | 1.808 | 1.65 | 1.516 | 1.399 | 1.296
x1 = 0.9028 | 1.643 | 1.507 | 1.39 | 1.286 | 1.194

CCNCCO + O=C=O
viscosity [mPa·s], 101.3 kPa
Details | 293.15 K | 303.15 K | 313.15 K | 323.15 K
x2 = 0.09091 | 51.76 | 29.14 | 17.6 | 11.32
x2 = 0.1667 | 197.6 | 99.53 | 54.38 | 31.96
x2 = 0.2308 | 791.4 | 361 | 179.9 | 97.29

COC(=O)c1ccccc1 + CCCCCCCCCCCC
101 kPa
Details | viscosity [mPa·s]
298.15 K, x2 = 0.082 | 1.662
298.15 K, x2 = 0.1173 | 1.604
298.15 K, x2 = 0.144 | 1.569
298.15 K, x2 = 0.1894 | 1.521
298.15 K, x2 = 0.2155 | 1.489
298.15 K, x2 = 0.2495 | 1.456
298.15 K, x2 = 0.2908 | 1.424
298.15 K, x2 = 0.3295 | 1.395
298.15 K, x2 = 0.3708 | 1.367
298.15 K, x2 = 0.4625 | 1.325
298.15 K, x2 = 0.5803 | 1.295
298.15 K, x2 = 0.6336 | 1.286
298.15 K, x2 = 0.6963 | 1.278
298.15 K, x2 = 0.7551 | 1.279
298.15 K, x2 = 0.837 | 1.291
298.15 K, x2 = 0.9197 | 1.314
308.15 K, x2 = 0.0354 | 1.452
308.15 K, x2 = 0.0681 | 1.412
308.15 K, x2 = 0.0984 | 1.376
308.15 K, x2 = 0.126 | 1.347
308.15 K, x2 = 0.1623 | 1.311
308.15 K, x2 = 0.1958 | 1.282
308.15 K, x2 = 0.2384 | 1.248
308.15 K, x2 = 0.2693 | 1.226
308.15 K, x2 = 0.3062 | 1.203
308.15 K, x2 = 0.3476 | 1.182
308.15 K, x2 = 0.3895 | 1.164
308.15 K, x2 = 0.4361 | 1.146
308.15 K, x2 = 0.485 | 1.131
308.15 K, x2 = 0.5382 | 1.12
308.15 K, x2 = 0.5886 | 1.112
308.15 K, x2 = 0.65 | 1.108
308.15 K, x2 = 0.7204 | 1.107
308.15 K, x2 = 0.7849 | 1.11
308.15 K, x2 = 0.8845 | 1.124
318.15 K, x2 = 0.0445 | 1.219
318.15 K, x2 = 0.0506 | 1.213
318.15 K, x2 = 0.0779 | 1.183
318.15 K, x2 = 0.1097 | 1.152
318.15 K, x2 = 0.1388 | 1.126
318.15 K, x2 = 0.1737 | 1.097
318.15 K, x2 = 0.2067 | 1.072
318.15 K, x2 = 0.2449 | 1.048
318.15 K, x2 = 0.2814 | 1.025
318.15 K, x2 = 0.3256 | 1.001
318.15 K, x2 = 0.3648 | 0.983
318.15 K, x2 = 0.4153 | 0.964
318.15 K, x2 = 0.4635 | 0.95
318.15 K, x2 = 0.5194 | 0.938
318.15 K, x2 = 0.5726 | 0.931
318.15 K, x2 = 0.6372 | 0.926
318.15 K, x2 = 0.7 | 0.924
318.15 K, x2 = 0.7739 | 0.929
318.15 K, x2 = 0.8468 | 0.938

CCOC(=O)CCl + c1ccccc1
viscosity [mPa·s], 101.3 kPa
Details | x1 = 0.0985 | x1 = 0.1983 | x1 = 0.2974 | x1 = 0.3925 | x1 = 0.5049 | x1 = 0.6023 | x1 = 0.696 | x1 = 0.7994 | x1 = 0.8998
298.15 K | 0.634 | 0.659 | 0.694 | 0.734 | 0.781 | 0.834 | 0.886 | 0.949 | 1.019
303.15 K | 0.592 | 0.616 | 0.649 | 0.687 | 0.731 | 0.779 | 0.825 | 0.883 | 0.948
308.15 K | 0.549 | 0.574 | 0.605 | 0.64 | 0.681 | 0.723 | 0.765 | 0.82 | 0.878

CCCCOCCO + Cc1ccc(C)cc1
viscosity [mPa·s], 101 kPa
Details | 298.15 K | 308.15 K
x1 = 0.0541 | 0.566 | 0.647
x1 = 0.1518 | 0.625 | 0.725
x1 = 0.2496 | 0.695 | 0.817
x1 = 0.3502 | 0.784 | 0.933
x1 = 0.451 | 0.894 | 1.076
x1 = 0.5028 | 0.961 | 1.162
x1 = 0.5533 | 1.033 | 1.256
x1 = 0.6489 | 1.194 | 1.465
x1 = 0.7493 | 1.404 | 1.739
x1 = 0.8519 | 1.676 | 2.092
x1 = 0.9561 | 2.029 | 2.551

[Cl-].[Cl-].[Mg+2] + O
viscosity
Details | 293.15 K | 298.15 K | 303.15 K | 308.15 K | 318.15 K
101 kPa, x1 = 0.0944 | – | 13.8 mPa·s | – | – | –
101.3 kPa, x1 = 0.0009 | 1.025 mPa·s | 0.911 mPa·s | 0.8162 mPa·s | 0.7364 mPa·s | 0.6104 mPa·s
101.3 kPa, x1 = 0.0018 | 1.046 mPa·s | 0.9296 mPa·s and 0.936 mPa·s | 0.8329 mPa·s | 0.7517 mPa·s and 0.759 mPa·s | 0.629 mPa·s
101.3 kPa, x1 = 0.0045 | – | 0.988 mPa·s | – | 0.798 mPa·s | 0.662 mPa·s
101.3 kPa, x1 = 0.0089 | – | 1.075 mPa·s | – | 0.867 mPa·s | 0.72 mPa·s
101.3 kPa, x1 = 0.00893 | 1.219 mPa·s | 1.085 mPa·s | 0.9729 mPa·s | 0.8788 mPa·s | 0.7293 mPa·s
101.3 kPa, x1 = 0.0177 | 1.475 mPa·s | 1.314 mPa·s | 1.179 mPa·s | 1.065 mPa·s | 0.8849 mPa·s
101.3 kPa, x1 = 0.03478 | 2.199 mPa·s | 1.95 mPa·s | 1.747 mPa·s | 1.574 mPa·s | 1.302 mPa·s
101.3 kPa, x1 = 0.05127 | 3.332 mPa·s | 2.937 mPa·s | 2.616 mPa·s | 2.346 mPa·s | 1.926 mPa·s
101.3 kPa, x1 = 0.06722 | 5.271 mPa·s | 4.603 mPa·s | 4.064 mPa·s | 3.615 mPa·s | 2.926 mPa·s
101.3 kPa, x1 = 0.08263 | 9.001 mPa·s | 7.752 mPa·s | 6.761 mPa·s | 5.951 mPa·s | 4.726 mPa·s
